Data set [1] in a line: Half life in iv dosed Wistar rat serum measured after 2 to 20 mins by HPLC analysis. The class given is ADME, organism-based. To be noted: time 2-20 min.
A further data set concerns the target Insulin receptor (Homo sapiens, UniProt P06213). Kind of data set: Activation of human IR-B expressed in mouse NIH3T3 cells assessed as increase in Akt phosphorylation at Ser473 residue incubated for 30 mins by HTRF method. The class given is cell-based. (In general: In TR-FRET formats the signal depends on donor and acceptor labels being close together.)
The target in data set [2] is Neurotensin receptor type 1 (Rattus norvegicus, UniProt P20789). Kind of data set: Agonist activity at rat NTR1 expressed in CHO cells assessed as effect on [3H] phosphoinositide accumulation using neurotensin (1 to 13 residues) as substrate by radioactive assay. The data set is classed as cell-based.
A short description of data set [3]: Agonist activity at Zebra fish V2R expressed in African green monkey COS-1 cells assessed as increase in intracellular calcium response by FLIPR assay. The class given is cell-based. To be noted: Danio rerio.
The next data set concerns the target T1, Vasopressin V1b receptor (Homo sapiens, UniProt P47901).
T1 sequence (P47901 whole entry): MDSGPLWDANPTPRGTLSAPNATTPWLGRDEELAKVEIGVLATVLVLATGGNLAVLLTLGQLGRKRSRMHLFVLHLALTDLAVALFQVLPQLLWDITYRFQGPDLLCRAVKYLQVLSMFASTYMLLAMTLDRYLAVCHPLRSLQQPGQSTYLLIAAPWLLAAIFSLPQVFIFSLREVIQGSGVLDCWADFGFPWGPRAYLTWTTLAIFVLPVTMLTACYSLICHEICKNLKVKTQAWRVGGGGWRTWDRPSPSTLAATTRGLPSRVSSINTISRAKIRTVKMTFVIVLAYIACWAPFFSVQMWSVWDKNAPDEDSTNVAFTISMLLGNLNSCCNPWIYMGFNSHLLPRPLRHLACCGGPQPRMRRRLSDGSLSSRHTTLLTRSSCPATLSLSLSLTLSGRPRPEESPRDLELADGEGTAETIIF
Kind of data set: Agonist activity at human V1bR expressed in African green monkey COS-1 cells assessed as increase in intracellular calcium response by FLIPR assay. The data set is classed as functional, cell-based. For orientation: A change in cytosolic calcium serves as a functional read-out for many receptors and channels.

Data set [4] in a line: Agonist activity at Zebra fish V1a1R expressed in African green monkey COS-1 cells assessed as increase in intracellular calcium response by FLIPR assay. The data set is classed as cell-based. To be noted: Danio rerio.
Data set [5] has as its target Mas-related G-protein coupled receptor member X1 (Homo sapiens, UniProt Q96LB2). The experiment in a line: Activation of human MrgprX1 expressed in BAM 8-22 activated-rat KNRK cells by fura2-AM dye based calcium imaging assay. The class given is cell-based.

Positions of bridges follow the written chain, without caps; N, C: chain ends. Non-standard residues stand in square brackets, D forms with d. Residues, ends and D or L forms follow the SMILES beside them. Gla = N[C@@H](CC(C(=O)O)C(=O)O)C(=O)O

Chain of Mas-related G-protein coupled receptor member X1 (Q96LB2 whole entry): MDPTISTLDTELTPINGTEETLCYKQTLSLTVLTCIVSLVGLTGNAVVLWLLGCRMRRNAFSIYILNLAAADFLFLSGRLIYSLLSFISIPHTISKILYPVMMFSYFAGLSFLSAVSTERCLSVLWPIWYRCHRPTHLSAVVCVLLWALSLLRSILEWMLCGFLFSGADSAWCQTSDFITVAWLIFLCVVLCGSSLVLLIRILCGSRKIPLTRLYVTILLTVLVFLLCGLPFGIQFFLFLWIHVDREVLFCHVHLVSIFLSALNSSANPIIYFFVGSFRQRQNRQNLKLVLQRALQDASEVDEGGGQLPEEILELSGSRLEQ
Chain of Insulin receptor (P06213 28-758 limits assumed): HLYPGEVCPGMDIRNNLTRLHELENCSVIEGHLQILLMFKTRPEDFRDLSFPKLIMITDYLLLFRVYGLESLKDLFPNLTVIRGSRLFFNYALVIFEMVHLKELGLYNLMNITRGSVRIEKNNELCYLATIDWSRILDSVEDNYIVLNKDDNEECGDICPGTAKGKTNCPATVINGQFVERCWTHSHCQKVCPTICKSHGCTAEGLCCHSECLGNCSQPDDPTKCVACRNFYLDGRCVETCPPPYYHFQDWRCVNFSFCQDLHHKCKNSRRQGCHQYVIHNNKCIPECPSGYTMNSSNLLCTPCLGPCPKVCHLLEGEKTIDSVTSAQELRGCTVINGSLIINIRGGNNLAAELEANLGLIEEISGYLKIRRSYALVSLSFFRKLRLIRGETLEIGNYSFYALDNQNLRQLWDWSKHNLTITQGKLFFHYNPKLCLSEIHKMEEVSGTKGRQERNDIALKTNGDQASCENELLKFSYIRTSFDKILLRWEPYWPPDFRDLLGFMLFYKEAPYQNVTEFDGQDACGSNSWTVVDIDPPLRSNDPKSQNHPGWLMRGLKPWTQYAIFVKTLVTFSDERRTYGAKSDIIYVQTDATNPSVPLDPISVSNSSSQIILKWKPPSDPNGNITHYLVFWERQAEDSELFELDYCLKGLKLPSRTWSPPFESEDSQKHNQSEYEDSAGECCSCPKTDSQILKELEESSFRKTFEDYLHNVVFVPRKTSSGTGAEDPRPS
Chain of Insulin receptor (P06213 763-1382 limits assumed): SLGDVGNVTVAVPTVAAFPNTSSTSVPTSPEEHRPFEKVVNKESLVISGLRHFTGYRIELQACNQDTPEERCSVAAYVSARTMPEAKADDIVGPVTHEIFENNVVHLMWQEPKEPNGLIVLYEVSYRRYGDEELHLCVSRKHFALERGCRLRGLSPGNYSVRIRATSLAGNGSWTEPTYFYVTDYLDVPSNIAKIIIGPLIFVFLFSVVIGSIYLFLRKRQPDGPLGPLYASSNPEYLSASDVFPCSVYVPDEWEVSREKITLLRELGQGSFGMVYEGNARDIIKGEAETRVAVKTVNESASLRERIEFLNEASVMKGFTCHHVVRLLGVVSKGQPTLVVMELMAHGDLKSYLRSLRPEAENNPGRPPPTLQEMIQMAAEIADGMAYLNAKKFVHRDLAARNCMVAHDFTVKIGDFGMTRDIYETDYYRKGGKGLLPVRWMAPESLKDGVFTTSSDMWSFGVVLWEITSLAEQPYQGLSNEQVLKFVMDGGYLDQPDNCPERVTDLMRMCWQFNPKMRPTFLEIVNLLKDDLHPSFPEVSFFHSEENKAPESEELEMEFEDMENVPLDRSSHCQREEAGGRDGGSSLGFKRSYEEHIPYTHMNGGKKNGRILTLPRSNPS
Chain of Neurotensin receptor type 1 (P20789 whole entry, the tested form may be a part): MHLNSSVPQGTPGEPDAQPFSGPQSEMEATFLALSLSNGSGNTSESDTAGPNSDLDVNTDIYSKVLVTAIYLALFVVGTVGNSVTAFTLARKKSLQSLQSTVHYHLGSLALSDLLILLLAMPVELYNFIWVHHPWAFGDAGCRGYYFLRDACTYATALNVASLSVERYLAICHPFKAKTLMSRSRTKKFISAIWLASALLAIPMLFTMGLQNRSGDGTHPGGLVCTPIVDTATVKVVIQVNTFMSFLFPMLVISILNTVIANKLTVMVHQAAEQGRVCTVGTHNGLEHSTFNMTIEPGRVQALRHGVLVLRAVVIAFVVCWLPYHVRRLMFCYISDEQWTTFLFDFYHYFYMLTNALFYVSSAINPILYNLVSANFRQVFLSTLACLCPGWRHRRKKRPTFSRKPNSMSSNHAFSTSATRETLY

Broadly, the half-life is the time in which the quantity being followed falls by half. On to `CC[C@H](C)[C@H](NC(=O)[C@H](Cc1ccccc1)NC(=O)[C@H](CCC(=O)O)NC(=O)[C@H](CCCCN)NC(=O)[C@H](C)NC(=O)[C@H](C)NC(=O)[C@H](CCC(N)=O)NC(=O)CNC(=O)[C@H](CCC(=O)O)NC(=O)[C@H](CC(C)C)NC(=O)[C@H](Cc1ccc(O)cc1)NC(=O)[C@H](CO)NC(=O)[C@H](CO)NC(=O)[C@@H](NC(=O)[C@H](CC(=O)O)NC(=O)[C@H](CO)NC(=O)[C@@H](NC(=O)[C@H](Cc1ccccc1)NC(=O)[C@@H](NC(=O)CNC(=O)[C@H](CCC(=O)O)NC(=O)[C@H](C)NC(=O)[C@@H](N)Cc1cnc[nH]1)[C@@H](C)O)[C@@H](C)O)C(C)C)C(=O)N[C@@H](C)C(=O)N[C@@H](Cc1c[nH]c2ccccc12)C(=O)N[C@@H](CC(C)C)C(=O)N[C@H](C(=O)N[C@@H](CCCCN)C(=O)NCC(=O)N[C@@H](CCCNC(=N)N)C(=O)O)C(C)C`, for which, in data set [1], the half-life stood at 2 min. One may read the EC50 as the concentration at which the effect is half-maximal. For the compound `CC[C@H](C)[C@H](NC(=O)[C@H](CC(C)C)NC(=O)[C@@H](Cc1ccc(O)cc1)NC(=O)[C@H](CCC(N)=O)NC(=O)[C@H](CC(N)=O)NC(=O)[C@H](Cc1ccc(O)cc1)NC(=O)[C@H](CCC(N)=O)NC(=O)[C@H](CC(C)C)NC(=O)[C@@H](Cc1ccc(O)cc1)NC(=O)[C@@H](Cc1ccc(O)cc1)NC(=O)[C@H](CCC(=O)O)NC(=O)CN)C(=O)N[C@@H](CCCNC(=N)N)C(=O)N[C@H](Cc1ccc(O)cc1)C(=O)N[C@@H](CCCCN)C(=O)N[C@@H](CO)C(=O)N[C@@H](CC(N)=O)C(N)=O`, the EC50 at Insulin receptor was found to be 12 nM. The same measure, in the same setting: the result for `CC[C@H](C)[C@@H]1NC(=O)[C@H](Cc2ccc(O)cc2)NC(=O)[C@H](CO)NC(=O)[C@H](CC(N)=O)NC(=O)[C@@H]2CCCN2C(=O)[C@H]([C@@H](C)CC)NC(=O)[C@H](CC(C(=O)O)C(=O)O)NC(=O)[C@H](CO)NC(=O)CNC(=O)[C@@H]2CSSC[C@@H]3NC(=O)[C@@H](NC(=O)[C@H](Cc4cnc[nH]4)NC(=O)[C@H](CC(C(=O)O)C(=O)O)NC(=O)[C@@H](NC(=O)[C@@H](NC(=O)CN)C(C)C)C(C)C)CSSC[C@H](NC(=O)[C@@H]4CCCN4C(=O)[C@H](CCCNC(=N)N)NC(=O)[C@H](Cc4cnc[nH]4)NC3=O)C(=O)N[C@@H](CO)C(=O)N[C@@H](CC(N)=O)C(=O)N[C@@H](C)C(=O)N[C@@H](CCC(=O)O)C(=O)N[C@@H](Cc3ccccc3)C(=O)N[C@@H](CCCCN)C(=O)N[C@@H](CCCCN)C(=O)N[C@@H](Cc3ccccc3)C(=O)N[C@@H](CSSC[C@H](C(=O)N[C@@H](Cc3ccccc3)C(=O)O)NC(=O)[C@H](CC(C)C)NC(=O)[C@H](CC(=O)O)NC1=O)C(=O)N[C@@H](CC(N)=O)C(=O)N[C@@H](CO)C(=O)N[C@@H](CC(=O)O)C(=O)N[C@@H]([C@@H](C)O)C(=O)N1CC(O)C[C@H]1C(=O)N[C@@H](CCCCN)C(=O)N[C@@H](Cc1ccc(O)cc1)C(=O)N[C@@H](CCCNC(=N)N)C(=O)N2` (some centres undefined) reads 12 nM. The same measure, in the same setting: as for `CC[C@H](C)[C@@H]1NC(=O)[C@H](CC(=O)O)NC(=O)[C@H](CO)NC(=O)CNC(=O)[C@@H]2CSSC[C@@H]3NC(=O)[C@@H](NC(=O)[C@H](Cc4cnc[nH]4)NC(=O)[C@H](CC(C(=O)O)C(=O)O)NC(=O)[C@@H](NC(=O)[C@@H](NC(=O)CN)C(C)C)C(C)C)CSSC[C@H](NC(=O)[C@@H]4CCCN4C(=O)[C@H](CCCNC(=N)N)NC(=O)[C@H](Cc4cnc[nH]4)NC3=O)C(=O)N[C@@H](CO)C(=O)N[C@@H](CC(N)=O)C(=O)N[C@@H](C)C(=O)N[C@@H](CCC(=O)O)C(=O)N[C@@H](Cc3ccccc3)C(=O)N[C@@H](CCCCN)C(=O)N[C@@H](CCCCN)C(=O)N[C@@H](Cc3ccccc3)C(=O)N[C@@H](CSSC[C@H](C(=O)N[C@@H](Cc3ccccc3)C(=O)O)NC(=O)[C@H](CC(C)C)NC(=O)[C@H](CC(=O)O)NC(=O)[C@H](CCSC)NC(=O)[C@H](Cc3ccc(O)cc3)NC(=O)[C@H](CO)NC(=O)[C@H](CC(N)=O)NC(=O)[C@@H]3CCCN3C1=O)C(=O)N[C@@H](CC(N)=O)C(=O)N[C@@H](CO)C(=O)N[C@@H](CC(=O)O)C(=O)N[C@@H]([C@@H](C)O)C(=O)N1CC(O)C[C@H]1C(=O)N[C@@H](CCCCN)C(=O)N[C@@H](Cc1ccc(O)cc1)C(=O)N[C@@H](CCCNC(=N)N)C(=O)N2` (some centres undefined), the figure is 12 nM.

Take `CC[C@H](C)[C@H](NC(=O)[C@H](CC(C)C)NC(=O)[C@@H](Cc1ccc(O)cc1)NC(=O)[C@H](CCC(N)=O)NC(=O)[C@H](CC(N)=O)NC(=O)[C@H](Cc1ccc(O)cc1)NC(=O)[C@H](CCC(N)=O)NC(=O)[C@H](CC(C)C)NC(=O)[C@@H](Cc1ccc(O)cc1)NC(=O)[C@@H](Cc1ccc(O)cc1)NC(=O)[C@H](CCC(=O)O)NC(=O)CN)C(=O)N[C@@H](CCCNC(=N)N)C(=O)N[C@H](Cc1ccc(O)cc1)C(=O)N[C@@H](CCCCN)C(=O)N[C@@H](CO)C(=O)N[C@@H](CC(N)=O)C(=O)O`: in data set [2], the concentration for a half-maximal effect (EC50) amounted to 20 nM. `CC(C)C[C@H](NC(=O)[C@H](Cc1ccccc1)NC(=O)[C@@H](N)CS)C(=O)NCC(=O)N[C@@H](CC(N)=O)C(=O)N[C@@H](CS)C(=O)N1CCC[C@H]1C(=O)N[C@@H](CC(=O)O)C(=O)N[C@@H](CO)C(N)=O` (H-CFLGNCPDS-NH2): the EC50 in data set [3] amounted to 1000 nM. Regarding `CC(C)C[C@H](NC(=O)[C@H](Cc1ccccc1)NC(=O)[C@@H](N)CS)C(=O)NCC(=O)N[C@@H](CC(N)=O)C(=O)N[C@@H](CS)C(=O)N1CCC[C@H]1C(=O)N[C@@H](CC(=O)O)C(=O)N[C@@H](CO)C(=O)O` (H-CFLGNCPDS-OH), the EC50 in data set [3] came out at 1000 nM. With `NC(=O)C[C@H](NC(=O)CNC(=O)[C@@H]1CCCN1C(=O)[C@H](Cc1ccccc1)NC(=O)[C@@H](N)CS)C(=O)N[C@@H](CS)C(=O)N1CCC[C@H]1C(=O)N[C@@H](CC(=O)O)C(=O)N[C@@H](CO)C(N)=O` (H-CFPGNCPDS-NH2), the 50% effective concentration (EC50) (on Vasopressin V1b receptor; in data set [4]) was 1000 nM each time. On to H-AWSGPRNRFVRF-OH, for which the concentration for a half-maximal effect (EC50) in data set [5] turned out to be 1800 nM. As to “H-GIV[Gla]DCCYNDCTDEKLKEYCHTLQSDSGTTLVRRRLCGS[Gla]LVTYLGELCLGN-OH (disulfide 6-11, 7-37, 20-49)”, the EC50 at Insulin receptor is 12 nM. The same measure, in the same setting: the result for “H-GVV[Gla]HCCKRACSNA[Gla]FMQFCNSDTPWNRCGSQITDSYR[Gla]LCPH-OH (disulfide 6-11, 7-29, 20-41)” reads 12 nM. In the case of H-HSGFLLAWSGPRNRFVRF-OH, in data set [5], the EC50 stood at 1800 nM. On to H-HSGILLAWSGPRNRFVRI-OH, for which the EC50 in data set [5] turned out to be 500 nM.

Source of the values: ChEMBL document CHEMBL4673185 (RSC Med Chem, 2020).
